{
  "source": "paper PMC5931690",
  "about": "“SmSP2: A serine protease secreted by the blood fluke pathogen Schistosoma mansoni with anti-hemostatic properties” (PLoS Neglected Tropical Diseases, 2018)",
  "target": "T1, rSmSP2 (SmSP2, serine protease 2; recombinant protease domain) (Schistosoma mansoni, UniProt V5UMR3)",
  "T1 construct": "gene SP2; about 28 kDa on SDS-PAGE, active form",
  "T1 sequence (V5UMR3 entry or part of it)": "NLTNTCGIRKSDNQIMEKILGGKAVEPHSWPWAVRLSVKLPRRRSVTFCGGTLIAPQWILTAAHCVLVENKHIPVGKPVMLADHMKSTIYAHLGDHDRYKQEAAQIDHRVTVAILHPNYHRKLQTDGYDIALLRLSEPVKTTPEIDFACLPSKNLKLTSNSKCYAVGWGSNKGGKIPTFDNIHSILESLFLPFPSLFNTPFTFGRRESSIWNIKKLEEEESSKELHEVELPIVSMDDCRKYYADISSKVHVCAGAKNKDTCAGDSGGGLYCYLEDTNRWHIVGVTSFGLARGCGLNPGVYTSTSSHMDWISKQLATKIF",
  "test": "fluorogenic kinetic assay, residual P-F-R-AMC hydrolysis",
  "format": "biochemical",
  "description": "fluorogenic kinetic assay, residual P-F-R-AMC hydrolysis on rSmSP2 (SmSP2, serine protease 2; recombinant protease domain)",
  "note": "*1 amine or outer side, *2 acyl side, *3 side chain or, on linkers, in order; H or OH if unused. Where a SMILES comes first, the peptide text is derived from it. CO = O=C([*:1])[*:2]",
  "data": [
    {"smiles": "O=c1oc(Cl)c(Cl)c2ccccc12", "values": [
      {"measurement": "inhibition at 100 µM", "setting": "read-out: Inhibition (%)^c", "value": "71.4 ± 3.3", "unit": "%"}
    ]},
    {"smiles": "CC(C)[C@H](NC(=O)[C@H](CCCNC(=N)N)NC(=O)N[C@@H](Cc1ccccc1)C(=O)O)C(=O)N[C@H](C=O)CCCNC(=N)N", "note": "[Antipain] ({Phe-CO}-Arg-Val-Arg-aldehyde)", "values": [
      {"measurement": "inhibition at 20 µM", "setting": "read-out: Inhibition (%)^c", "value": 100, "unit": "%"}
    ]},
    {"smiles": "N=C(N)c1ccccc1", "note": "[Benzamidine]", "values": [
      {"measurement": "inhibition at 1000 µM", "setting": "read-out: Concentration", "value": 100, "unit": "%"}
    ]},
    {"smiles": "CC(=O)N[C@@H](CC(C)C)C(=O)N[C@@H](CC(C)C)C(=O)N[C@H](C=O)CCCNC(=N)N", "note": "[Leupeptin, N-acetyl-L-leucyl-L-leucyl-L-argininal]", "values": [
      {"measurement": "inhibition at 20 µM", "setting": "read-out: Inhibition (%)^c", "value": 100, "unit": "%"}
    ]},
    {"smiles": "NCCc1ccc(S(=O)(=O)F)cc1", "note": "[Pefabloc SC]", "values": [
      {"measurement": "percent inhibition", "setting": "1000 µM, 50 μM P-F-R-AMC, 0.1 M Tris-HCl pH 8.0, 37 °C, 10 min preincubation, covalent", "value": 100, "unit": "%"}
    ]}
  ]
}
